Measurements taken from paper PMC2733882, “Structure of Hordeum vulgare NADPH-dependent thioredoxin reductase 2. Unwinding the reaction mechanism” (Acta Crystallographica Section D: Biological Crystallography, 2009).

Columns and labels:
[1] = molecular target: T1, HvNTR2 (Hordeum vulgare, UniProt A9LN30); experiment: bleaching of yellow HvNTR2 crystals (FAD reduction); assay type: biochemical; conditions: 10 mM NADPH, 30 min, in crystals; NADPH not seen in the structure
T1 construct: gene NTR2; recombinant, E. coli Rosetta (DE3); FAD domain 1-126 and 255-331, NADPH domain 127-254; model residues 6-323 (A), 5-323 (B); homodimer

[2] = molecular target: T1, HvNTR2; experiment: X-ray crystal structure, […] A; assay type: binding; conditions: crystals pH 3.5, 0.1 M citrate; one FAD per subunit in FAD domain, tightly bound

T1 sequence (A9LN30 1-331): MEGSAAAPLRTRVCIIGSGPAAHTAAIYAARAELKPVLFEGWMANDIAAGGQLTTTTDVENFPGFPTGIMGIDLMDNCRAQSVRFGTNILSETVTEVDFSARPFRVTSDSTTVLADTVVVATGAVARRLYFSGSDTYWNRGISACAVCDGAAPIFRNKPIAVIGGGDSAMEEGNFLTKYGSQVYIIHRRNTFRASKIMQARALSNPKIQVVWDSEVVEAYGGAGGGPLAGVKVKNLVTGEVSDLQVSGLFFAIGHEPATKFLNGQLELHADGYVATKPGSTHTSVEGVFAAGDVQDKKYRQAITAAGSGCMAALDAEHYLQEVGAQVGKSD

SMILES | bleaching of yellow HvNTR2 crystals (FAD reduction) [1] | X-ray crystal structure, 2.6 A [2]
NC(=O)C1=CN([C@@H]2O[C@H](COP(=O)(O)OP(=O)(O)OC[C@H]3O[C@@H](n4cnc5c(N)ncnc54)[C@H](OP(=O)(O)O)[C@@H]3O)[C@@H](O)[C@H]2O)C=CC1 [NADPH] | FAD can still be reduced by NADPH as judged from the bleaching | 
Cc1cc2nc3c(=O)[nH]c(=O)nc-3n(C[C@H](O)[C@H](O)[C@H](O)COP(=O)(O)OP(=O)(O)OC[C@H]3O[C@@H](n4cnc5c(N)ncnc54)[C@H](O)[C@@H]3O)c2cc1C [FAD] |  | One FAD molecule with well defined electron density
